Reference: patent US12247022B2, “Combinations for treatment of NASH/NAFLD and related diseases” (Pfizer Inc., priority 2018, dated 2025)

Tests used:
Type in all cases: in vivo, rat
[1] = tested on: Western diet fed Sprague Dawley rats; experiment: Fasted plasma triglyceride (TG), Western diet fed rats, oral dosing; conditions: oral monotherapy, 4 hour fast, 2 hours post-dose
Protocol: (§1) A randomized, vehicle-controlled, 8-parallel arm study was conducted in male Sprague-Dawley rats (Charles River (Boston, MA)) to obtain circulating and hepatic TG levels. Standard laboratory conditions were used to house 96 rats (˜200 g); they were double housed and kept under 12:12-hour reverse light-dark schedule (lights off at 8:00 AM). Rats were randomized into chow or Western diet groups and dose groups upon arrival and were given a 14-day lead-in period on either standard rat chow or Western diet prior to the start of the study. Standard Laboratory Rodent chow diet, 5053, was from LabDiet (PMI, St Louis, Missouri). Western Diet, D12079Bi, was from Research Diets (New Brunswick, New Jersey).
For these studies, vehicle was prepared to make a 0.5% (wt/volume) of methyl cellulose (MC, Sigma Aldrich; 274429) in deionized water. The stock solutions with either Compound A (prepared from the tris salt) or Compound D were prepared with the respective compound to provide a concentration such that 10 ml of the solution would deliver the desired mg/kg dosage amount, where the average weight of the rats used was about 200 g.
Starting on Day 1 of the study, rats were dosed orally (10 mL/kg) with either vehicle control (0.5% MC (wt/volume %) in dionized water), low or high doses of Compound A (1 mg/kg or 10 mg/kg QD, respectively), low or high doses of Compound D (5 mg/kg or 30 mg/kg BID respectively), or co-administration of low doses (Compound A at 1 mg/kg QD and Compound D at 5 mg/kg BID), or co-administration of high doses (Compound A at 10 mg/kg QD and Compound D at 30 mg/kg BID)
Fasted plasma analytes: Blood for determining fasted plasma TG was collected after a 4 hour fast, 2 hours post-dose (2 hours into the dark cycle) via lateral tail vein, transferred to BD Microtainer tubes coated with K2EDTA (PN365974), and centrifuged at 4° C. The resulting plasma samples were then analyzed on a Siemens Chemistry XPT clinical analyzer (Malven, PA) using Siemens triglycerides 2 assay reagents (ref 10335892).

[2] = tested on: SCD1; experiment: Hepatic lipogenic gene expression (qPCR), Western diet fed rats: SCD1; conditions: Actb housekeeping gene, Day 28 liver
Protocol: as §1
(§2) Starting on Day 1 of the study, rats were dosed orally (10 mL/kg) with either vehicle control (0.5% MC (wt/volume %) in dionized water), low or high doses of Compound A (1 mg/kg or 10 mg/kg QD, respectively), low or high doses of Compound D (5 mg/kg or 30 mg/kg BID respectively), or co-administration of low doses (Compound A at 1 mg/kg QD and Compound D at 5 mg/kg BID), or co-administration of high doses (Compound A at 10 mg/kg QD and Compound D at 30 mg/kg BID) […]
(§3) Another portion of the pulverized liver was processed and analyzed for lipogenic gene expression. Rat taqman probes against ACC1, FASN, SCD1, PCSK9 and SREBP-1c were all assessed using Actb as housekeeping gene on qPCR.

[3] = tested on: sterol regulatory element-binding protein 1c (SREBP-1c); experiment: Hepatic lipogenic gene expression (qPCR), Western diet fed rats: SREBP-1c; conditions: Actb housekeeping gene, Day 28 liver
Protocol: as §1, §2, §3

[4] = tested on: proprotein convertase subtilisin/kexin type 9 (PCSK9); experiment: Hepatic lipogenic gene expression (qPCR), Western diet fed rats: PCSK9; conditions: Actb housekeeping gene, Day 28 liver
Protocol: as §1, §2, §3

[5] = tested on: Ionized calcium binding adaptor molecule 1 (Iba1); experiment: Hepatic Iba1 staining, CDAHFD fed rats; conditions: twice daily for 6 weeks; Compound A 5 mg/kg, Compound D 30 mg/kg, or co-administration; 12 weeks on CDAHFD
Protocol: (§4) A randomized, vehicle-controlled, 5-parallel arm study was conducted in male Wistar-Han rats (Charles River (Boston, MA)) fed a choline-deficient and high fat diet (CDAHFD) (Research diets; A16092003) to identify differences in improvements in markers of hepatic inflammation and fibrosis when administering either Compound A or Compound D alone as monotherapy or in combination. Standard laboratory conditions were used to house 60 rats (˜200 g); they were double housed and kept under 12:12-hour reverse light-dark schedule (lights off at 8:00 AM). Rats were fed choline deficient and high fat diet (CDAHFD) beginning 6-weeks prior to initiation of the study. Rats, randomized into 4 dosing groups (n=12/group), received twice daily administration of vehicle, Compound A (5 mg/kg) monotherapy, Compound D (30 mg/kg) monotherapy, or co-administration Compound A (5 mg/kg) and Compound D (30 mg/kg) for a period of 6-weeks. […] Histology was assessed following 6-weeks of drug administration which corresponded to 12 weeks on the CDAHFD. […]
Following the 12-weeks on CDAHFD, the animals were sacrificed by CO2 asphyxiation. […] A portion of the pulverized liver sample from each animal was processed and analyzed for gene expression markers of fibrogenesis. Rat taqman probes against […]SMA and COL1A1 were all assessed using Actb as housekeeping gene on qPCR. […]

[6] = tested on: COL1A1; experiment: Hepatic COL1A1 gene expression (qPCR), CDAHFD fed rats; conditions: twice daily for 6 weeks, Compound A 5 mg/kg, Compound D 30 mg/kg, or co-administration, Actb
Protocol: as §4
Following the 12-weeks on CDAHFD, the animals were sacrificed by CO2 asphyxiation. […] A portion of the pulverized liver sample from each animal was processed and analyzed for gene expression markers of fibrogenesis. Rat taqman probes against […]SMA and COL1A1 were all assessed using Actb as housekeeping gene on qPCR.

Row | Compound | reduction of fasted plasma TG, relative to vehicle administered Western diet fed rats ([1]; high dose (Compound D 30 mg/kg BID)) [%] | reduction of fasted plasma TG, relative to vehicle administered Western diet fed rats ([1]; low dose (Compound D 5 mg/kg BID)) [%] | hepatic SCD1 gene expression relative to Western Diet fed and vehicle treated animals [2] | hepatic SREBP1 gene expression relative to Western Diet fed and vehicle treated animals [3] | hepatic PCSK9 gene expression relative to Western Diet fed and vehicle treated animals [4] | reduction of Iba1 staining [5] | hepatic collagen A1A (COL1A1) gene expression [6] | increase in fasted plasma TG, relative to vehicle administered Western diet fed rats ([1]; high dose (Compound A 10 mg/kg QD)) [fold] | increase in fasted plasma TG, relative to vehicle administered Western diet fed rats ([1]; low dose (Compound A 1 mg/kg QD)) [fold]
1 | CCOc1cccnc1Oc1cncc(-c2ncc(C(=O)N[C@H]3CCOC3)cn2)c1 [Compound D, (S)-2-(5-((3-ethoxypyridin-2-yl)oxy)pyridin-3-yl)-N-(tetrahydrofuran-3-yl)pyrimidine-5-carboxamide] | 35 | 20 | decreased expression | decreased expression | decreased expression | did not alter | reduced | – | –
2 | COc1cc(C(=O)N2CCC3(CC2)CC(=O)c2c(cnn2C(C)C)C3)cc(-c2ccc(C(=O)O)cc2)n1 [Compound A, 4-(4-(1-isopropyl-7-oxo-1,4,6,7-tetrahydrospiro[indazole-5,4′-piperidine]-1′-carbonyl)-6-methoxypyridin-2-yl)benzoic acid] | – | – | trended to further increase | – | – | 15% | reduced | 1.7 | 2.4
